Experimental data reported in ChEMBL document CHEMBL1158690, “Characterization of lipophilic pentasaccharides from beach morning glory (Ipomoea pes-caprae)” (2005).

Legend:
Type in all cases: functional
[1] = Cytotoxicity against human ovarian carcinoma cells; settings: Ovarian carcinoma cell, read-out: ED50 (the source's name)
[2] = Cytotoxicity against human colon carcinoma cells; settings: Colon carcinoma cell, read-out: ED50 (the source's name)
[3] = Cytotoxicity against human squamous cervical carcinoma cells; settings: read-out: ED50 (the source's name)
[4] = Cytotoxicity against human nasopharyngeal carcinoma cells; settings: Nasopharyngeal carcinoma cell, read-out: ED50 (the source's name)

Measured: EC50

CCCCCCCCCCCC(=O)O[C@H]1[C@H](O[C@@H]2[C@H]3OC(=O)CCCCCCCCC[C@H](CCCCC)O[C@@H]4O[C@H](C)[C@H](O)[C@H](O)[C@H]4O[C@H](O[C@H]2C)[C@@H]3O)O[C@@H](C)[C@H](O[C@@H]2O[C@@H](C)[C@H](O)[C@@H](O)[C@H]2O)[C@H]1O[C@@H]1O[C@@H](C)[C@H](O)[C@@H](O)[C@H]1O [PESCAPREIN I]
5 µg/mL: [1] | [2] | [3] | [4]

CCCCCCCCCCCC(=O)O[C@H]1[C@H](O[C@@H]2[C@H]3OC(=O)CCCCCCCCC[C@H](CCCCC)O[C@@H]4O[C@H](C)[C@H](O)[C@H](O)[C@H]4O[C@H](O[C@H]2C)[C@@H]3O)O[C@@H](C)[C@H](O[C@@H]2O[C@@H](C)[C@H](OC(=O)[C@@H](C)CC)[C@@H](O)[C@H]2O)[C@H]1O[C@@H]1O[C@@H](C)[C@H](O)[C@@H](O)[C@H]1O [PESCAPREIN III]
5 µg/mL: [1] | [2] | [3] | [4]

CCCCCCCCCCCC(=O)O[C@H]1[C@H](O[C@@H]2[C@H]3OC(=O)CCCCCCCCC[C@H](CCCCC)O[C@@H]4O[C@H](C)[C@H](O)[C@H](O)[C@H]4O[C@H](O[C@H]2C)[C@@H]3O)O[C@@H](C)[C@H](O[C@@H]2O[C@@H](C)[C@H](OC(=O)C(C)C)[C@@H](O)[C@H]2O)[C@H]1O[C@@H]1O[C@@H](C)[C@H](O)[C@@H](O)[C@H]1O [PESCAPREIN II]
5 µg/mL: [1] | [2] | [3] | [4]

CCCCCCCCCCCC(=O)O[C@H]1[C@H](O[C@@H]2[C@@H](O)[C@@H](O)[C@H](O[C@H]3[C@H](O[C@@H](CCCCC)CCCCCCCCCC(=O)OC)O[C@H](C)[C@H](O)[C@@H]3O)O[C@H]2C)O[C@@H](C)[C@H](O[C@@H]2O[C@@H](C)[C@H](O)[C@@H](O)[C@H]2O)[C@H]1O[C@@H]1O[C@@H](C)[C@H](O)[C@@H](O)[C@H]1O [PESCAPROSIDE A]
5 µg/mL: [1] | [2] | [3] | [4]

CCCCCCCCCCCC(=O)O[C@H]1[C@H](O[C@@H]2[C@H]3OC(=O)CCCCCCCCC[C@H](CCCCC)O[C@@H]4O[C@H](C)[C@H](O)[C@H](O)[C@H]4O[C@H](O[C@H]2C)[C@@H]3O)O[C@@H](C)[C@H](O[C@@H]2O[C@@H](C)[C@H](OC(=O)CCCCC)[C@@H](O)[C@H]2O)[C@H]1O[C@@H]1O[C@@H](C)[C@H](O)[C@@H](O)[C@H]1O [PESCAPREIN IV]
5 µg/mL: [1] | [2] | [3] | [4]

CCCCCCCCCC(=O)O[C@H]1[C@H](O[C@@H]2[C@H]3OC(=O)CCCCCCCCC[C@H](CCCCC)O[C@@H]4O[C@H](C)[C@H](O)[C@H](O)[C@H]4O[C@H](O[C@H]2C)[C@@H]3O)O[C@@H](C)[C@H](O[C@@H]2O[C@@H](C)[C@H](OC(=O)[C@@H](C)CC)[C@@H](O)[C@H]2O)[C@H]1O[C@@H]1O[C@@H](C)[C@H](O)[C@@H](O)[C@H]1O [STOLONIFERIN III]
5 µg/mL: [1] | [2] | [3] | [4]
